SMILES strings stand for the structures.

The subject of one assay is microbial flora in the target watershed.
Test: not given
The conditions noted are these: determined by EUCAST database; unit assumed; cited from earlier work.
For `NCC[C@H](O)C(=O)N[C@@H]1C[C@H](N)[C@@H](O[C@H]2O[C@H](CN)[C@@H](O)[C@H](O)[C@H]2O)[C@H](O)[C@H]1O[C@H]1O[C@H](CO)[C@@H](O)[C@H](N)[C@H]1O` [Amikacin], the Observed MIC was 250 mg/L.

On to `CC1(C)S[C@@H]2[C@H](NC(=O)[C@H](N)c3ccc(O)cc3)C(=O)N2[C@H]1C(=O)O` [Amoxicillin], for which the Observed MIC is 4 mg/L.

For the compound `C[C@@H]1[C@H](O)[C@@H](C)/C=C/C=C/C=C/C=C/C=C/C=C/C=C/[C@H](O[C@@H]2O[C@H](C)[C@@H](O)[C@H](N)[C@@H]2O)C[C@@H]2O[C@](O)(C[C@@H](O)C[C@@H](O)[C@H](O)CC[C@@H](O)C[C@@H](O)CC(=O)O[C@H]1C)C[C@H](O)[C@H]2C(=O)O` [Amphotericin B], the Observed MIC was 8 mg/L. Regarding `CC1(C)S[C@@H]2[C@H](NC(=O)[C@H](N)c3ccccc3)C(=O)N2[C@H]1C(=O)O` [Ampicillin], the Observed MIC is 4 mg/L.

`COC[C@H]1O[C@@H](OC2OC[C@@H]3O[C@]4(O[C@H]3[C@H]2OC(=O)C(C)C)O[C@H](C)[C@@](O)(C(C)=O)[C@@H]2OCO[C@H]24)[C@@H](OC)[C@@H](O)[C@@H]1O[C@@H]1O[C@H](C)[C@H](OC)[C@H](O[C@H]2C[C@@]3(C)OC4(C[C@@H](O)[C@H](O[C@H]5C[C@@H](O)[C@H](OC(=O)c6c(C)c(Cl)c(O)c(Cl)c6OC)[C@@H](C)O5)[C@@H](C)O4)O[C@@H]3[C@@H](C)O2)[C@H]1O` (stereo partly drawn) [Avilamycin]: the Observed MIC is 1000 mg/L. Regarding `CC[C@H]1OC(=O)[C@H](C)[C@@H](O[C@H]2C[C@@](C)(OC)[C@@H](O)[C@H](C)O2)[C@H](C)[C@@H](O[C@@H]2O[C@H](C)C[C@H](N(C)C)[C@H]2O)[C@](C)(O)C[C@@H](C)CN(C)[C@H](C)[C@@H](O)[C@]1(C)O` [Azithromycin], the Observed MIC was 16 mg/L. As for `C[C@H]1[C@H](NC(=O)/C(=N\OC(C)(C)C(=O)O)c2csc(N)n2)C(=O)N1S(=O)(=O)O` [Aztreonam], the Observed MIC is 32 mg/L. Regarding `N[C@@H](C(=O)N[C@@H]1C(=O)N2C(C(=O)O)=C(Cl)CS[C@H]12)c1ccccc1` [Cefaclor], the Observed MIC was 32 mg/L. In the case of `Cc1nnc(SCC2=C(C(=O)O)N3C(=O)[C@@H](NC(=O)Cn4cnnn4)[C@H]3SC2)s1` [Cefazolin], the Observed MIC was 32 mg/L. Take `CO/N=C(\C(=O)N[C@@H]1C(=O)N2C(C(=O)[O-])=C(C[N+]3(C)CCCC3)CS[C@H]12)c1csc(N)n1` [Cefepime]: the Observed MIC is 8 mg/L. As for `CO/N=C(\C(=O)N[C@@H]1C(=O)N2C(C(=O)O)=C(COC(C)=O)CS[C@H]12)c1csc(N)n1` [Cefotaxime], the Observed MIC was 2 mg/L. On to `CO/N=C(\C(=O)N[C@@H]1C(=O)N2C(C(=O)[O-])=C(C[n+]3cccc4c3CCC4)CS[C@H]12)c1csc(N)n1` [Cefpirome], for which the Observed MIC was 4 mg/L.

For `CC(C)(O/N=C(\C(=O)N[C@@H]1C(=O)N2C(C(=O)[O-])=C(C[n+]3ccccc3)CS[C@H]12)c1csc(N)n1)C(=O)O` [Ceftazidime], the Observed MIC was 16 mg/L. On to `Nc1nc(/C(=C/CC(=O)O)C(=O)N[C@@H]2C(=O)N3C(C(=O)O)=CCS[C@H]23)cs1` [Ceftibuten], for which the Observed MIC was 8 mg/L. Regarding `CO/N=C(\C(=O)N[C@@H]1C(=O)N2C(C(=O)O)=C(CSC(=O)c3ccco3)CS[C@H]12)c1csc(N)n1` [Ceftiofur], the Observed MIC was 8 mg/L. In the case of `CO/N=C(\C(=O)N[C@@H]1C(=O)N2C(C(=O)O)=C(CSc3nc(=O)c(=O)[nH]n3C)CS[C@H]12)c1csc(N)n1` [Ceftriaxone], the Observed MIC is 2 mg/L. As to `CO/N=C(\C(=O)N[C@@H]1C(=O)N2C(C(=O)O)=C(COC(N)=O)CS[C@H]12)c1ccco1` [Cefuroxime], the Observed MIC is 8 mg/L. `O=C(O)c1cn(C2CC2)c2cc(N3CCNCC3)c(F)cc2c1=O` [Ciprofloxacin]: the Observed MIC is 2 mg/L. On to `NC1CCN(c2c(F)cc3c(=O)c(C(=O)O)cn(C4CC4)c3c2Cl)C1` (stereo not drawn) [Clinafloxacin], for which the Observed MIC was 32 mg/L. As to `Cc1onc(-c2ccccc2Cl)c1C(=O)N[C@@H]1C(=O)N2[C@@H]1SC(C)(C)[C@@H]2C(=O)O` [Cloxacillin], the Observed MIC was 64 mg/L. `CCCCCCCCCC(=O)N[C@@H](Cc1c[nH]c2ccccc12)C(=O)N[C@H](CC(N)=O)C(=O)N[C@@H](CC(=O)O)C(=O)N[C@@H]1C(=O)NCC(=O)N[C@@H](CCCN)C(=O)N[C@@H](CC(=O)O)C(=O)N[C@H](C)C(=O)N[C@@H](CC(=O)O)C(=O)NCC(=O)N[C@H](CO)C(=O)N[C@@H]([C@H](C)CC(=O)O)C(=O)N[C@@H](CC(=O)c2ccccc2N)C(=O)O[C@@H]1C` [Daptomycin]: the Observed MIC is 32 mg/L. Consider `CN1CCN(c2cc3c(cc2F)c(=O)c(C(=O)O)cn3-c2ccc(F)cc2)CC1` [Difloxacin], for which the Observed MIC is 2 mg/L. For the compound `C[C@@H](O)[C@H]1C(=O)N2C(C(=O)O)=C(S[C@@H]3CN[C@H](CNS(N)(=O)=O)C3)[C@H](C)[C@H]12` [Doripenan], the Observed MIC was 2 mg/L. On to `CCN1CCN(c2cc3c(cc2F)c(=O)c(C(=O)O)cn3C2CC2)CC1` [Enrofloxacin], for which the Observed MIC is 8 mg/L. With `C[C@@H](O)[C@H]1C(=O)N2C(C(=O)O)=C(S[C@@H]3CN[C@H](C(=O)Nc4cccc(C(=O)O)c4)C3)[C@H](C)[C@H]12` [Ertapenem], the Observed MIC was 2 mg/L. Turning to `CC[C@H]1OC(=O)[C@H](C)[C@@H](O[C@H]2C[C@@](C)(OC)[C@@H](O)[C@H](C)O2)[C@H](C)[C@@H](O[C@@H]2O[C@H](C)C[C@H](N(C)C)[C@H]2O)[C@](C)(O)C[C@@H](C)C(=O)[C@H](C)[C@@H](O)[C@]1(C)O` [Erythromycin], the Observed MIC was 16 mg/L. As to `C[C@@H](O)[C@H]1C(=O)N2C(C(=O)O)=C([C@H]3CCCO3)S[C@H]12` [Faropenem], the Observed MIC was 8 mg/L. In the case of `CCc1c(Cl)c(O)c(Cl)c(O)c1C(=O)O[C@H]1[C@H](O)[C@H](OC)[C@H](OC/C2=C\C=C\C[C@H](O)/C(C)=C/[C@H](CC)[C@@H](O[C@@H]3OC(C)(C)[C@@H](OC(=O)C(C)C)[C@H](O)[C@@H]3O)/C(C)=C/C(C)=C/C[C@@H]([C@@H](C)O)OC2=O)O[C@@H]1C` [Fidaxomicin], the Observed MIC is 8 mg/L.

On to `OC(Cn1cncn1)(Cn1cncn1)c1ccc(F)cc1F` [Fluconazol], for which the Observed MIC is 64 mg/L. As to `CC1CCc2cc(F)cc3c(=O)c(C(=O)O)cn1c23` (stereo not drawn) [Flumequine], the Observed MIC was 64 mg/L.

For the compound `COc1c(N2CCNC(C)C2)c(F)cc2c(=O)c(C(=O)O)cn(C3CC3)c12` (stereo not drawn) [Gatifloxacin], the Observed MIC is 4 mg/L. As for `NNC(=O)c1ccncc1` [Isoniazide], the Observed MIC is 64 mg/L. On to `CC(=O)N1CCN(c2ccc(OCC3COC(Cn4ccnc4)(c4ccc(Cl)cc4Cl)O3)cc2)CC1` (stereo not drawn) [Ketoconazole], for which the Observed MIC was 4 mg/L. As to `C[C@@H](O)[C@H]1C(=O)N2C(C(=O)O)=C(S[C@@H]3CN[C@H](C(=O)N(C)C)C3)[C@H](C)[C@H]12` [MeropeneM], the Observed MIC was 2 mg/L. Regarding `Cc1ncc([N+](=O)[O-])n1CCO` [Metronidazole], the Observed MIC is 16 mg/L. Turning to `C/C(=C\C(=O)OCCCCCCCCC(=O)O)C[C@@H]1OC[C@H](C[C@@H]2O[C@H]2[C@@H](C)[C@H](C)O)[C@@H](O)[C@H]1O` [Mupirocin], the Observed MIC was 32 mg/L. In the case of `CCN[C@@H]1C[C@H](N)[C@@H](O[C@H]2OC(CN)=CC[C@H]2N)[C@H](O)[C@H]1O[C@H]1OC[C@](C)(O)[C@H](NC)[C@H]1O` [Netilmicin], the Observed MIC was 16 mg/L. `CCn1cc(C(=O)O)c(=O)c2cc(F)c(N3CCNCC3)cc21` [Norfloxacin]: the Observed MIC was 16 mg/L. In the case of `Cc1onc(-c2ccccc2)c1C(=O)N[C@@H]1C(=O)N2[C@@H]1SC(C)(C)[C@@H]2C(=O)O` [Oxacillin], the Observed MIC is 32 mg/L. Regarding `CC1(C)S[C@@H]2[C@H](NC(=O)COc3ccccc3)C(=O)N2[C@H]1C(=O)O` [Phenoxymethylpenicillin], the Observed MIC was 4 mg/L. `CCN1CCN(C(=O)N[C@@H](C(=O)N[C@@H]2C(=O)N3[C@@H]2SC(C)(C)[C@@H]3C(=O)O)c2ccccc2)C(=O)C1=O` [Piperacillin]: the Observed MIC is 4 mg/L.

For the compound `C=C[C@]1(C)C[C@@H](OC(=O)CS[C@@H]2C[C@H]3CC[C@@H](C2)N3C)[C@]2(C)[C@H](C)CC[C@]3(CCC(=O)[C@H]32)[C@@H](C)[C@@H]1O` [Retapamulin], the Observed MIC was 64 mg/L.

On to `CC[C@H]1OC(=O)[C@H](C)[C@@H](O[C@H]2C[C@@](C)(OC)[C@@H](O)[C@H](C)O2)[C@H](C)[C@@H](O[C@@H]2O[C@H](C)C[C@H](N(C)C)[C@H]2O)[C@](C)(O)C[C@@H](C)/C(=N\OCOCCOC)[C@H](C)[C@@H](O)[C@]1(C)O` [Roxithromycin], for which the Observed MIC was 2 mg/L. As to `Cc1ncc([N+](=O)[O-])n1CC(C)O` (stereo not drawn) [Secnidazole], the Observed MIC was 32 mg/L. On to `CN[C@@H]1[C@H](O)[C@H](NC)[C@H]2O[C@@]3(O)C(=O)C[C@@H](C)O[C@H]3O[C@@H]2[C@H]1O` [Spectinomycin], for which the Observed MIC was 2 mg/L. As to `CC[C@H]1OC(=O)[C@H](C)C(=O)[C@H](C)[C@@H](O[C@@H]2O[C@H](C)C[C@H](N(C)C)[C@H]2O)[C@](C)(OC)C[C@@H](C)C(=O)[C@H](C)[C@H]2N(CCCCn3cnc(-c4cccnc4)c3)C(=O)O[C@]12C` [Telithromycin], the Observed MIC was 16 mg/L. For `CN(C)c1cc(NC(=O)CNC(C)(C)C)c(O)c2c1C[C@H]1C[C@H]3[C@H](N(C)C)C(O)=C(C(N)=O)C(=O)[C@@]3(O)C(O)=C1C2=O` [Tigecycline], the Observed MIC is 16 mg/L. `NC[C@H]1O[C@H](O[C@H]2[C@H](O)[C@@H](O[C@H]3O[C@H](CO)[C@@H](O)[C@H](N)[C@H]3O)[C@H](N)C[C@@H]2N)[C@H](N)C[C@@H]1O` [Tobramycin]: the Observed MIC was 16 mg/L. Turning to `COc1cc(Cc2cnc(N)nc2N)cc(OC)c1OC` [Trimethoprim], the Observed MIC is 16 mg/L. For the compound `C[C@@H](c1ncncc1F)[C@](O)(Cn1cncn1)c1ccc(F)cc1F` [Voriconazole], the Observed MIC was 2 mg/L.

For another assay the test system is unchanged. In words: minimum inhibitory concentration (MIC) by EUCAST database and drug resistance prediction invalid concentration PNECr. The conditions noted are these: PNECR=MIC/AF, AF 10.
From the text: Minimum inhibitory concentration (MIC) of some antibiotics and drug resistance prediction invalid concentration (PNECr) of microbes
With `NCC[C@H](O)C(=O)N[C@@H]1C[C@H](N)[C@@H](O[C@H]2O[C@H](CN)[C@@H](O)[C@H](O)[C@H]2O)[C@H](O)[C@H]1O[C@H]1O[C@H](CO)[C@@H](O)[C@H](N)[C@H]1O` [Amikacin], the PNECr is given as 25. Turning to `C[C@@H]1[C@H](O)[C@@H](C)/C=C/C=C/C=C/C=C/C=C/C=C/C=C/[C@H](O[C@@H]2O[C@H](C)[C@@H](O)[C@H](N)[C@@H]2O)C[C@@H]2O[C@](O)(C[C@@H](O)C[C@@H](O)[C@H](O)CC[C@@H](O)C[C@@H](O)CC(=O)O[C@H]1C)C[C@H](O)[C@H]2C(=O)O` [Amphotericin B], the PNECr is given as 0.8. Same read-out and setting: the result for `COC[C@H]1O[C@@H](OC2OC[C@@H]3O[C@]4(O[C@H]3[C@H]2OC(=O)C(C)C)O[C@H](C)[C@@](O)(C(C)=O)[C@@H]2OCO[C@H]24)[C@@H](OC)[C@@H](O)[C@@H]1O[C@@H]1O[C@H](C)[C@H](OC)[C@H](O[C@H]2C[C@@]3(C)OC4(C[C@@H](O)[C@H](O[C@H]5C[C@@H](O)[C@H](OC(=O)c6c(C)c(Cl)c(O)c(Cl)c6OC)[C@@H](C)O5)[C@@H](C)O4)O[C@@H]3[C@@H](C)O2)[C@H]1O` (stereo partly drawn) [Avilamycin] reads 100; that for `C[C@@H](O)[C@H]1C(=O)N2C(C(=O)O)=C(S[C@@H]3CN[C@H](CNS(N)(=O)=O)C3)[C@H](C)[C@H]12` [Doripenan], 0.2.

Source of the values: patent publication US11959122B2.
